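96-well plates; 48 h exposure; 5 concentrations. Endpoints by linear interpolation between flanking doses. Not reached: highest tested concentration assigned. Here, GI50 denotes the concentration required for 50% inhibition of growth.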 Active and inactive are the calls of the source. Cut-off read from the data, not from the text of the source: active = GI50 up to about 1.1 µM and inactive = higher. Peptide text beside a SMILES is read from it. * marks the point of attachment. Cbz = O=C(OCc1ccccc1)*
What was measured:
Assay in all cases: NCI tumour cell line growth inhibition, 48 h
[1] = test system: 786-0
[2] = test system: A549
[3] = test system: EKVX
[4] = test system: HCT-15
[5] = test system: HT-29
[6] = test system: IGROV-1
[7] = test system: MDA-MB-231
[8] = test system: MDA-MB-435
[9] = test system: MDA-N
[10] = test system: OVCAR-5
[11] = test system: RPMI-8226
[12] = test system: SK-MEL-28
[13] = test system: SK-MEL-2
[14] = test system: SK-OV-3
[15] = test system: SW-620
[16] = test system: T47D
[17] = test system: U-251
[18] = test system: UACC-257
[19] = test system: UACC-62
[20] = test system: Malme-3M

Row | Structure (SMILES) | GI50 [1] | GI50 [2] | GI50 [3] | GI50 [4] [µM] | GI50 [5] | GI50 [6] | GI50 [7] | GI50 [8] | GI50 [9] | GI50 [10] | GI50 [11] | GI50 [12] | GI50 [13] | GI50 [14] | GI50 [15] | GI50 [16] | GI50 [17] | GI50 [18] | GI50 [19] | GI50 [20]
1 | CCCCCCC(CCl)c1sc(-c2csc(CCNC(=O)OC(C)(C)C)n2)nc1C(=O)OC (configuration not stated) | 19.3 µM (inactive) | 26.4 µM (inactive) | 26.6 µM (inactive) | 14.1 | 20.6 µM (inactive) | 30.2 µM (inactive) | 26.9 µM (inactive) | 12.5 µM (inactive) | 26.7 µM (inactive) | 32.1 µM (inactive) | 9.68 µM (inactive) | 28.6 µM (inactive) | 11.7 µM (inactive) | 19.1 µM (inactive) | 36 µM (inactive) | 3.53 µM (inactive) | 16.2 µM (inactive) | 27.1 µM (inactive) | 13.8 µM (inactive) | –
2 | CCOC(=O)C(C)NC(=O)C(C)NC(=O)C(C)NC(=O)C(C)NC(=O)C(C)NC(=O)C(C)NC(=O)C(C)NC(=O)OCc1ccccc1 (configuration not stated) (Cbz-AAAAAAA-OEt; configuration not given here) | > 100 µM (inactive) | > 100 µM (inactive) | > 100 µM (inactive) | > 100 | > 100 µM (inactive) | > 100 µM (inactive) | > 100 µM (inactive) | > 100 µM (inactive) | > 100 µM (inactive) | > 100 µM (inactive) | > 100 µM (inactive) | > 100 µM (inactive) | – | > 100 µM (inactive) | > 100 µM (inactive) | > 100 µM (inactive) | > 100 µM (inactive) | – | > 100 µM (inactive) | > 100 µM (inactive)
3 | COc1ccc(CNc2nc(NCc3ccc(OC)cc3)nc(NC(C)C)n2)cc1 | 7.91 µM (inactive) | 6.24 µM (inactive) | 25 µM (inactive) | 4.12 | 5.41 µM (inactive) | 7.53 µM (inactive) | – | 3.1 µM (inactive) | 2.69 µM (inactive) | 20.2 µM (inactive) | 1.94 µM (inactive) | 46.8 µM (inactive) | 6.5 µM (inactive) | 93.3 µM (inactive) | 4.22 µM (inactive) | 43.6 µM (inactive) | 7.52 µM (inactive) | 7.85 µM (inactive) | 4.28 µM (inactive) | 5 µM (inactive)
4 | CCCCN(CCCC)CCC(O)c1cc(-c2ccc(C(F)(F)F)cc2)nc(-c2ccc(C(F)(F)F)cc2)c1 (configuration not stated) | > 100 µM (inactive) | – | > 100 µM (inactive) | > 100 | > 100 µM (inactive) | > 100 µM (inactive) | > 100 µM (inactive) | > 100 µM (inactive) | > 100 µM (inactive) | > 100 µM (inactive) | > 100 µM (inactive) | > 100 µM (inactive) | > 100 µM (inactive) | – | > 100 µM (inactive) | > 100 µM (inactive) | > 100 µM (inactive) | > 100 µM (inactive) | > 100 µM (inactive) | > 100 µM (inactive)
5 | CO/N=C(\C(=O)Nn1cn[n+](CC(=O)[O-])c1)c1csc(N)n1 | > 10 µM (inactive) | > 10 µM (inactive) | > 10 µM (inactive) | > 10 | > 10 µM (inactive) | > 10 µM (inactive) | > 10 µM (inactive) | – | > 10 µM (inactive) | – | > 10 µM (inactive) | > 10 µM (inactive) | – | > 10 µM (inactive) | > 10 µM (inactive) | > 10 µM (inactive) | – | > 10 µM (inactive) | > 10 µM (inactive) | –
6 | Cc1ccnc(NS(=O)(=O)c2ccc(N=[N+]=[N-])cc2)n1 | > 100 µM (inactive) | > 100 µM (inactive) | > 100 µM (inactive) | > 100 | > 100 µM (inactive) | > 100 µM (inactive) | – | > 100 µM (inactive) | > 100 µM (inactive) | > 100 µM (inactive) | > 100 µM (inactive) | > 100 µM (inactive) | > 100 µM (inactive) | > 100 µM (inactive) | > 100 µM (inactive) | > 100 µM (inactive) | > 100 µM (inactive) | > 100 µM (inactive) | > 100 µM (inactive) | > 67.9 µM (inactive)
7 | COc1ccc2nc(-c3ccccc3)c(=O)[nH]c2c1 | > 100 µM (inactive) | > 100 µM (inactive) | > 100 µM (inactive) | > 100 | > 100 µM (inactive) | > 100 µM (inactive) | > 100 µM (inactive) | > 100 µM (inactive) | > 100 µM (inactive) | > 100 µM (inactive) | > 100 µM (inactive) | > 100 µM (inactive) | – | – | > 100 µM (inactive) | > 100 µM (inactive) | – | > 100 µM (inactive) | > 100 µM (inactive) | > 100 µM (inactive)
8 | O=c1c(SSc2coc3cc(F)ccc3c2=O)coc2cc(F)ccc12 | 10 µM (inactive) | 7.29 µM (inactive) | 21.1 µM (inactive) | 13.8 | 15.3 µM (inactive) | 2.95 µM (inactive) | 11.5 µM (inactive) | 11.1 µM (inactive) | 13.5 µM (inactive) | 37.8 µM (inactive) | 22.3 µM (inactive) | 5.58 µM (inactive) | – | – | 17.7 µM (inactive) | 20.7 µM (inactive) | 21.3 µM (inactive) | 21.8 µM (inactive) | 16.1 µM (inactive) | 29.6 µM (inactive)
9 | COC(=O)[C@@H]1[C@H](OC(C)=O)CCC2[C@@]3(C[C@@H](c4ccoc4)O[C@@H]3OC)[C@H](C)CC[C@]21C(=O)OC (some centres not stated) | > 25 µM (inactive) | > 25 µM (inactive) | > 25 µM (inactive) | > 25 | > 25 µM (inactive) | > 25 µM (inactive) | > 25 µM (inactive) | > 25 µM (inactive) | > 25 µM (inactive) | > 25 µM (inactive) | > 25 µM (inactive) | – | > 25 µM (inactive) | > 25 µM (inactive) | > 25 µM (inactive) | > 25 µM (inactive) | > 25 µM (inactive) | > 25 µM (inactive) | > 25 µM (inactive) | –
10 | CO/C(=N\N=C\c1ccc(Cl)cc1Cl)c1ccncc1 | > 10 µM (inactive) | > 10 µM (inactive) | > 10 µM (inactive) | > 10 | > 10 µM (inactive) | – | > 10 µM (inactive) | 3.66 µM (inactive) | 4.51 µM (inactive) | > 10 µM (inactive) | 6.24 µM (inactive) | – | > 10 µM (inactive) | – | > 10 µM (inactive) | 7.69 µM (inactive) | > 10 µM (inactive) | > 10 µM (inactive) | – | > 10 µM (inactive)
11 | COC(=O)[C@@]12CCCC(=O)[C@@H]1[C@H]1CCC[C@H]12 | > 100 µM (inactive) | > 100 µM (inactive) | > 100 µM (inactive) | > 100 | > 100 µM (inactive) | > 100 µM (inactive) | > 100 µM (inactive) | > 100 µM (inactive) | > 100 µM (inactive) | > 100 µM (inactive) | > 100 µM (inactive) | > 100 µM (inactive) | > 100 µM (inactive) | > 100 µM (inactive) | > 100 µM (inactive) | – | > 100 µM (inactive) | > 100 µM (inactive) | > 100 µM (inactive) | > 100 µM (inactive)
12 | CC(C)(/N=N/C(C)(C)C1=NCCN1)C1=NCCN1 | > 71.4 µM (inactive) | – | > 100 µM (inactive) | > 100 | > 100 µM (inactive) | > 100 µM (inactive) | > 100 µM (inactive) | > 100 µM (inactive) | > 100 µM (inactive) | > 100 µM (inactive) | – | > 100 µM (inactive) | > 100 µM (inactive) | – | > 100 µM (inactive) | 76.6 µM (inactive) | > 100 µM (inactive) | > 100 µM (inactive) | > 100 µM (inactive) | > 100 µM (inactive)
13 | CC(=O)Oc1ccc2[nH]c3c(C)c4cccc-4ccc3c2c1 | 1.85 µM (inactive) | 2.26 µM (inactive) | 2.2 µM (inactive) | 2.24 | 2.02 µM (inactive) | 1.57 µM (inactive) | – | 2 µM (inactive) | 2.36 µM (inactive) | 2.02 µM (inactive) | 3.03 µM (inactive) | 2.31 µM (inactive) | 1.96 µM (inactive) | 2.02 µM (inactive) | 3.7 µM (inactive) | 2.43 µM (inactive) | – | 1.92 µM (inactive) | 1.81 µM (inactive) | 1.78 µM (inactive)
14 | Cc1cc(Cl)ccc1C(=O)c1ccc2ccccc2c1C(=O)O | > 100 µM (inactive) | > 100 µM (inactive) | – | > 100 | > 100 µM (inactive) | > 100 µM (inactive) | > 100 µM (inactive) | > 100 µM (inactive) | > 100 µM (inactive) | > 100 µM (inactive) | > 100 µM (inactive) | > 100 µM (inactive) | > 100 µM (inactive) | – | > 100 µM (inactive) | > 100 µM (inactive) | > 100 µM (inactive) | > 100 µM (inactive) | > 100 µM (inactive) | > 100 µM (inactive)
15 | CCCCOP(=O)(OCCCC)C(NS(=O)(=O)c1ccccc1)(C(=O)OCC)C(F)(F)F (configuration not stated) | 33.3 µM (inactive) | 42.8 µM (inactive) | 30.1 µM (inactive) | 39.7 | 40 µM (inactive) | 23.3 µM (inactive) | 15.3 µM (inactive) | 29.5 µM (inactive) | 37.2 µM (inactive) | 31 µM (inactive) | 24.5 µM (inactive) | 34.1 µM (inactive) | – | 58.5 µM (inactive) | – | > 100 µM (inactive) | 34.8 µM (inactive) | 31.9 µM (inactive) | 43.9 µM (inactive) | 23.1 µM (inactive)
